pIC50: −log10 of the molar value. Like-named read-outs stand apart in the source and are kept apart here.
How the values were obtained:
[1] = target: T1, acetylcholinesterase (AChE) (Rattus norvegicus, UniProt P37136); experiment: biochemical; assay type: biochemical; conditions: for IC50 ratio BuChE/AChE: cortex AChE, serum BuChE
T1 construct: from tissue; host or cells: homogenate of rat cortex
T1 sequence (P37136 32-614): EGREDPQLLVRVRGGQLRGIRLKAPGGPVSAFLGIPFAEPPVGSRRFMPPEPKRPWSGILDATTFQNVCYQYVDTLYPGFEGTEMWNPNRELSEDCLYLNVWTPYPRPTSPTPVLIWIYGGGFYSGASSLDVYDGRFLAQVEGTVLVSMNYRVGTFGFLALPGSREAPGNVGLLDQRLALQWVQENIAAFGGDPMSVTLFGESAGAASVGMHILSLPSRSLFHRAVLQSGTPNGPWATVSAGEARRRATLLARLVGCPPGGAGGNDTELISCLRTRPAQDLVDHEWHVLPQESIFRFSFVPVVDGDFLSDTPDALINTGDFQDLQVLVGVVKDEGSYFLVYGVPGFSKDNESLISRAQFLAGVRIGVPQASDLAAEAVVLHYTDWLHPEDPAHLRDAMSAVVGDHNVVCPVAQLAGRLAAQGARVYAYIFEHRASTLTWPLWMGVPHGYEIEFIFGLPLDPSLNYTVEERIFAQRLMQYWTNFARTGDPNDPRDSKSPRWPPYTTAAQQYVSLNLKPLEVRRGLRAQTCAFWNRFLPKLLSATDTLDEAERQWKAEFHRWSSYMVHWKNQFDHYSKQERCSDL
Procedure: (§1) In the present invention a calorimetric method reported by Ellman was used to determine the effect of inhibition of the pharmaceutical on enzyme activity. The total volume of the solution of the enzyme activity reaction was 4 ml, which contained 0.3 mmol/L of acetylcholin iodide (acetylcholinesterase substrate), or 0.4 mmol/L of butyrylcholin iodide (butyrylcholinesterase substrate), 1 ml of the buffer solution of 25 mmol/L of phosphate of pH 7.4, and water to make up to 4 ml (including the amount of the enzyme solution and the testing reagent added afterwards). After the solution was kept at 37° C. for 5 minutes, 0.1-0.2 ml of enzyme solution (red cell membrane or serum of rat) was added, or 0.1-0.3 ml of the testing reagent was added at the same time. The solution was kept at the same temperature for another 8 minutes. Then 1 ml of 3% of sodium lauryl sulphate was added to terminate the reaction. Finally 1 ml of 0.2% 5,5-dithio-2,2′-nitro-benzoic acid solution was added for developing.
(§2) AChE taken from homogenate of rat's cortex. BuChE taken from rat's serum.

[2] = target: T2, BuChE (Rattus norvegicus, UniProt Q9JKC1); experiment: In-vitro anticholinesterase effect (Table 6), BuChE; assay type: biochemical; conditions: for inhibition at 10 µM: read-out: inhibition activity BuChE at 10(μM); for inhibition activity BuChE at 10(μM): Table 6
T2 construct: from tissue; host or cells: rat serum
T2 sequence (Q9JKC1 24-597): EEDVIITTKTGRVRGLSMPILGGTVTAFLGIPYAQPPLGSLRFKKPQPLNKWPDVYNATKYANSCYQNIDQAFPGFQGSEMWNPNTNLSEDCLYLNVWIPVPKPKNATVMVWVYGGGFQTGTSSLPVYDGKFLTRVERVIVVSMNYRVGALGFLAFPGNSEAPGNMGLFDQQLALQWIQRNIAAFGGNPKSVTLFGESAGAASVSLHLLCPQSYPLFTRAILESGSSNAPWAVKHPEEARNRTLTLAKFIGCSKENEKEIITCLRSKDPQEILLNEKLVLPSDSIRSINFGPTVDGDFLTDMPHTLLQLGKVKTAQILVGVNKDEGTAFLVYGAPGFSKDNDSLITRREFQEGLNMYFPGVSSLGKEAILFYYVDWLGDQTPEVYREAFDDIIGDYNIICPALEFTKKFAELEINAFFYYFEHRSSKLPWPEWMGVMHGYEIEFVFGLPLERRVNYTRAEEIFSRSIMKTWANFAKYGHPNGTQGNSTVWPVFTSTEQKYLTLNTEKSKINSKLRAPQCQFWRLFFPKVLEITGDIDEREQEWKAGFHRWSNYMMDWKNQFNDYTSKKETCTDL
Procedure: as §1

[3] = target: T3, AChE (Rattus norvegicus, UniProt P37136); experiment: biochemical
T3 construct: 0.1-0.2 ml of enzyme solution (red cell membrane or serum of rat) was added; from tissue; host or cells: rat tissue
T3 sequence (P37136 32-614): T1 sequence (P37136 32-614)
Procedure: as §1

[4] = target: T4, butyrylcholinesterase (BuChE) (Rattus norvegicus, UniProt Q9JKC1); experiment: In-vitro anticholinesterase effect, colorimetric method (Ellman), BuChE from rat's serum; assay type: biochemical
T4 construct: from tissue; host or cells: rat serum
T4 sequence (Q9JKC1 24-597): as above
Procedure: as §1
(§3) AChE taken from rat's red cell membrane. BuChE taken from rat's serum.
as §2

[5] = target: T5, acetylcholinesterase (AChE) (Rattus norvegicus, UniProt P37136); experiment: biochemical; assay type: biochemical
T5 construct: from tissue; host or cells: rat red cell membrane
Procedure: as §1, §3
T5 sequence (P37136 other isoform, or with tags, fused parts or gaps): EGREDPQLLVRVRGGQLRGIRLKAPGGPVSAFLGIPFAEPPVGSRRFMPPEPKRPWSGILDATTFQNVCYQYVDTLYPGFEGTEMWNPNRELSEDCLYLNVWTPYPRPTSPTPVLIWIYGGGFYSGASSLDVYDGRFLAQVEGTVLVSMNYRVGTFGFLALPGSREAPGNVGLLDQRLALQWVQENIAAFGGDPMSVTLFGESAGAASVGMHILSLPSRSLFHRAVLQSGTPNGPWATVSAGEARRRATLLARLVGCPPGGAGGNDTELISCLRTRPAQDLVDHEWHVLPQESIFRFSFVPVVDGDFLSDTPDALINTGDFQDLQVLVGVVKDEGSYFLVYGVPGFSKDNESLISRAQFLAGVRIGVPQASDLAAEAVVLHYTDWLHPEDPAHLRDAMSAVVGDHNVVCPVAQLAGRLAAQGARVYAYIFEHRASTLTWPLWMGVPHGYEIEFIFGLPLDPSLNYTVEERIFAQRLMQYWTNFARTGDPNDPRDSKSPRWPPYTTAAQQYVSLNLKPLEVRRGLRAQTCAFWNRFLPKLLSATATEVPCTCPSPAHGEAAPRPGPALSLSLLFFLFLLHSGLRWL

[6] = Critical toxicity on mice (Bliss method); assay type: in vivo; conditions: mouse, in vivo, po, mice, p.o., Bliss method, mortality within 7 days
Procedure: Test of each pharmaceutical was carried out using 4-5 dosage group.
Mortality within 7 days was observed.

[7] = tested on: memory impairment caused by scopolamine; experiment: 8-arm maze spatial distinction operation of rat, memory impairment caused by scopolamine; assay type: in vivo; conditions: rats, 8-arm maze; scopolamine + huperzine A 0.15 + 0.25 mg/kg ip + po
[8] = Table 2, AChE taken from homogenate of rat's cortex
[9] = read-out: concentration for inhibition of 50% of enzyme activity (IC50) acetylcholinesterase (AChE)
[10] = read-out: concentration for inhibition of 50% of enzyme activity (IC50) acetylcholinesterase (AChE), Table 2, AChE taken from homogenate of rat's cortex
[11] = read-out: concentration for inhibition of 50% of enzyme activity (IC50) butyrylcholinesterase (BuChE), Table 1, BuChE taken from rat's serum
[12] = read-out: concentration for inhibition of 50% of enzyme activity (IC50) butyrylcholinesterase (BuChE), Table 2, BuChE taken from rat's serum
[13] = Table 6, read-out: inhibition activity AChE IC50
[14] = read-out: inhibition activity AChE IC50
[15] = Table 1, AChE taken from rat's red cell membrane

For `CC=C1C2C=C(C)CC1(N=Cc1ccc(O)cc1O)c1ccc(=O)[nH]c1C2` (stereo not drawn) [derivative No. 23], the pIC50 [1, 8] was 6.60, the “IC50 ratio BuChE/AChE” value ([1]; Table 2) was 794.2 and the inhibition at 10 µM [2] was 0%. For the same molecule, the inhibition at 1 µM ([3]; Table 6) was 34.4% and the pIC50 [4] was 3.70.
For `CC=C1C2C=C(C)CC1(NC(=O)CCC(=O)O)c1ccc(=O)[nH]c1C2` (stereo not drawn) [derivative No. 1], the “IC50 ratio BuChE/AChE” value [5] was 1092.5, the “inhibition effect on acetylcholinesterase (in words)” value [5] was “remarkable inhibition effect” and the “inhibition effect on acetylcholinesterase compared with huperzine A” value [5] was “slightly weaker”. The “inhibition effect on acetylcholinesterase compared with physostigmine and galanthamine” value [5] was “apparently stronger”, the “selective inhibition effect on acetylcholinesterase compared with huperzine A” value [5] was “greater selective inhibition effect” and the pIC50 [5, 9] was 6.46. The “IC50 ratio BuChE/AChE” value ([1]; Table 2) was 1094.1, the pIC50 [1, 10] was 6.46 and the pIC50 [4, 11] was 3.42. For the same molecule, the pIC50 [4, 12] was 3.42 and the “inhibition effect on butyrylcholinesterase (pseudo enzyme) compared with huperzine A” value ([4]; see Tables 1, 2 and 6) was “weaker inhibition effect”.
In the case of `CC=C1C2C=C(C)CC1(N=Cc1ccc(O)c(O)c1O)c1ccc(=O)[nH]c1C2` (stereo not drawn) [derivative No. 25], the pIC50 [1, 8] was 6.80, the “IC50 ratio BuChE/AChE” value ([1]; Table 2) was 1584.9 and the inhibition at 10 µM [2] was 0%. For the same molecule, the inhibition at 1 µM ([3]; Table 6) was 62% and the pIC50 [4] was 3.60.
For `C/C=C1\C2C=C(C)C[C@]1(N)c1ccc(=O)[nH]c1C2` [huperzine A, (5R, 9R, 11E)-5-amino-11-ethylidene-5,6,9,10-tetrahydro-7-methyl-5,9-methylene cycloocta [b] pyridyl-2(1H)-one, reference compound], the LD50 at 7 days ([6]; first of two columns headed LD50, read-out: LD50 (first column) (95% confidence limit)) was 3.1 mg/kg, the LD50 at 7 days ([6]; second of two columns headed LD50, read-out: LD50 (second column) (95% confidence limit)) was 4.6 mg/kg and the “No. of mistakes in operation before reaching the standard, reference memory (X + SEM)” value [7] was 0.57. For the same molecule, the “No. of mistakes in operation before reaching the standard, working memory (X + SEM)” value [7] was 0.86.
`CC=C1C2C=C(C)CC1(N=Cc1cc(OC)c(OC)c(OC)c1)c1ccc(=O)[nH]c1C2` (stereo not drawn) [derivative No. 21] gave a pIC50 [1, 8] of 6.85, an inhibition at 10 µM [2] of 0% and an inhibition at 1 µM ([3]; Table 6) of 84.9%. The pIC50 [4] was 3.80.
With `CC=C1C2C=C(C)CC1(N=Cc1cccnc1)c1ccc(=O)[nH]c1C2` (stereo not drawn) [derivative No. 44] the inhibition at 10 µM [2] was 1.8%, the BuChE/AChE ([3]; Table 6) was greater than 500 and the inhibition at 1 µM ([3]; Table 6) was 85.6%. The pIC50 [3, 13] was 6.96.
With `CC=C1C2C=C(C)CC1(NC(=O)c1ccccn1)c1ccc(=O)[nH]c1C2` (stereo not drawn) [derivative No. 12] the “IC50 ratio BuChE/AChE” value ([1]; Table 2) was 1995.2, the pIC50 [1, 10] was 6.90 and the pIC50 [4, 12] was 3.60.
In the case of `CC=C1C2C=C(C)CC1(NC(=O)c1ccncc1)c1ccc(=O)[nH]c1C2` (stereo not drawn) [derivative No. 14], the “inhibition activity BuChE at 10(μM)” value [2] was 2.5, the BuChE/AChE [3] was greater than 100 and the “inhibition activity AChE at 1(μM)” value [3] was 76.4. The pIC50 [3, 14] was 6.44.
`CC=C1C2C=C(C)CC1(NC(=O)c1cccnc1)c1ccc(=O)n(C(=O)c3cccnc3)c1C2` (stereo not drawn) [derivative No. 5] showed a pIC50 [5, 15] of less than 4.96 and a pIC50 [4] of less than 3.56.
For `CC=C1C2C=C(C)CC1(NC(=O)c1ccccc1C(=O)O)c1ccc(=O)[nH]c1C2` (stereo not drawn) [derivative No. 15], the “IC50 ratio BuChE/AChE” value ([1]; Table 2) was 795.6, the pIC50 [1, 10] was 6.20 and the “inhibition activity BuChE at 10(μM)” value [2] was 0. The “inhibition activity AChE at 1(μM)” value [3] was 60.8 and the pIC50 [4, 12] was 3.30.
Molecule `CNC(=O)Oc1ccc2c(c1)[C@]1(C)CCN(C)[C@@H]1N2C` [Physostigmine, reference compound] has a pIC50 [4] of 5.90.
Molecule `CC=C1C2C=C(C)CC1(NC(=O)Cc1ccccc1)c1ccc(=O)[nH]c1C2` (stereo not drawn) [derivative No. 2] has a pIC50 [5, 15] of 5.04 and a pIC50 [4] of less than 3.46.
With `CC=C1C2C=C(C)CC1(N=Cc1ccc(OC)c(OC)c1O)c1ccc(=O)[nH]c1C2` (stereo not drawn) [derivative No. 22] the pIC50 [1, 8] was 6.90, the “IC50 ratio BuChE/AChE” value ([1]; Table 2) was 1000.0 and the inhibition at 10 µM [2] was 0%. It also gave an inhibition at 1 µM ([3]; Table 6) of 68.7% and a pIC50 [4] of 3.90.
Work on `CC=C1C2C=C(C)CC1(NC(=O)C1=CN(C)CC=C1)c1ccc(=O)[nH]c1C2` (stereo not drawn) [derivative No. 6] yielded a pIC50 ([5]; read-out: concentration for inhibition of 50% of enzyme activity (IC50) acetylcholinesterase (AChE), Table 1, AChE taken from rat's red cell membrane) of less than 4.91 and a pIC50 [4, 11] of less than 3.51.
In the case of `CC=C1C2C=C(C)CC1(NC(=O)/C=C/CC(=O)O)c1ccc(=O)[nH]c1C2` (stereo not drawn) [derivative No. 16], the “inhibition activity BuChE at 10(μM)” value [2] was 1.8, the BuChE/AChE [3] was greater than 200 and the “inhibition activity AChE at 1(μM)” value [3] was 80.7. For the same molecule, the pIC50 [3, 14] was 6.68.
For `CC=C1C2C=C(C)CC1(NC(=O)c1ccccc1)c1ccc(=O)[nH]c1C2` (stereo not drawn) [derivative No. 11], the pIC50 [5, 9] was less than 4.84 and the pIC50 [4, 11] was 3.44.
`CC=C1C2C=C(C)CC1(N=Cc1cccc(OC)c1O)c1ccc(=O)[nH]c1C2` (stereo not drawn) [derivative No. 26] gave an inhibition at 10 µM [2] of 1.1%, a BuChE/AChE ([3]; Table 6) greater than 300 and an inhibition at 1 µM ([3]; Table 6) of 79.7%. The pIC50 [3, 13] was 6.74.
With `CC=C1C2C=C(C)CC1(N=CC=Cc1ccccc1)c1ccc(=O)[nH]c1C2` (stereo not drawn) [derivative No. 27] the pIC50 [1] was 6.90, the “IC50 ratio BuChE/AChE” value ([1]; Table 2) was 794.3 and the inhibition at 10 µM [2] was 3.3%. For the same molecule, the BuChE/AChE ([3]; Table 6) was greater than 500, the inhibition at 1 µM ([3]; Table 6) was 84% and the pIC50 [3, 13] was 6.96. For the same molecule, the pIC50 [4] was 4.00.
Molecule `COc1cc2c(cc1OC)C(=O)C(CC1CCN(Cc3ccccc3)CC1)C2` (stereo not drawn) [E-2020, reference compound] has an inhibition at 10 µM [2] of 2.9%.
Work on `CC=C1C2C=C(C)CC1(NC(=O)C(C)C)c1ccc(=O)[nH]c1C2` (stereo not drawn) [derivative No. 10] yielded a pIC50 [5, 9] of less than 4.80 and a pIC50 [4, 11] of 3.96.
With `CC=C1C2C=C(C)CC1(NC(=O)c1cccnc1)c1ccc(=O)[nH]c1C2` (stereo not drawn) [derivative No. 4] the pIC50 [5, 15] was less than 4.89 and the pIC50 [4] was 4.23.
In the case of `CC=C1C2C=C(C)CC1(N=Cc1cccc(O)c1O)c1ccc(=O)[nH]c1C2` (stereo not drawn) [derivative No. 24], the pIC50 [1, 8] was 7.00, the inhibition at 10 µM [2] was 0% and the inhibition at 1 µM ([3]; Table 6) was 78.3%. For the same molecule, the pIC50 [3, 13] was 6.55.
In the case of `CC=C1C2C=C(C)CC1(N=Cc1ccccc1O)c1ccc(=O)[nH]c1C2` (stereo not drawn) [derivative No. 20], the pIC50 [1, 8] was 6.75, the “IC50 ratio BuChE/AChE” value ([1]; Table 2) was 708.1 and the inhibition at 10 µM [2] was 0%. For the same molecule, the pIC50 [3] was 7.03, the BuChE/AChE ([3]; Table 6) was greater than 500 and the inhibition at 1 µM ([3]; Table 6) was 83.7%. For the same molecule, the pIC50 [4] was 3.90.
